As usually defined, the IC50 is the midpoint of a concentration-inhibition curve.

The first experiment addresses T1, skeletal myofibrils (myosin ATPase activity) (Oryctolagus cuniculus, UniProt Q28641).
T1 construct: Rabbit Psoas Prep 11 (0.25 mg/mL)
Nature of the experiment: Skeletal Myofibril ATPase Assay (PK/LDH-coupled, NADH absorbance at 340 nm). Type of experiment: biochemical. The following applies: Rabbit Psoas myofibrils 0.25 mg/mL, ATP 0.05 mM, 1% DMSO vehicle = 100% activity. On the procedure:
Overview: Myosin ATPase activity was assessed by using a coupled reaction system, in which ADP generated by the myosin ATPase function was coupled to the disappearance of NADH through the pyruvate kinase/lactate dehydrogenase (PK-LDH) system. Myosin ATPase activity produces ADP, which was used as a substrate for PK to produce pyruvate and regenerate ATP. The pyruvate was then used as a substrate by LDH to oxidize NADH to NAD+. The rate of the reaction was monitored through the time-dependent disappearance of NADH using absorbance at 340 nm. Inhibition of ATPase activity by the assayed compounds was indicated by a reduced rate of NADH loss, relative to vehicle-treated controls, over the experimental time window. To assess the selectivity of the assayed compounds for skeletal myofibrils, the compounds were counter-screened in cardiac myofibrils.
Materials: The following stock solutions and reagents were used in the Skeletal Myofibril ATPase Assay:
Stock Solutions of pCa buffer. Combine PIPES, CaCl2), and EGTA solutions with 70 mL of water. Adjust pH to 7.0 and bring final volume to 100 mL.
Buffer A & Buffer B. Butters were stored on ice until use.
Skeletal Myofibril ATPase Assay Procedure: BSA, ATP, NADH, PEP, and DTT solutions were thawed at room temperature, then transferred to ice. Pellet-frozen myofibrils (approximately twice the required volume) were transferred into a sufficiently large tube and capped. Myofibrils were thawed by rolling in a water bath for approximately 15 min at room temperature and cooled on ice. Buffers A and B were prepared by adjusting volumes as necessary for required number of wells and stored on ice. 0.5 μL of the compounds to be assayed were added into wells of a 384-well plate. Buffers A and B were mixed by inversion immediately prior to use, then 25 μL of each was dispensed using a Multidrop dispenser (Buffer A first, then Buffer B). The absorbance within the wells was measured at 340 nm, using a kinetic protocol in which the wells are read every 1.5-2 min for 1 h. The reaction rate was qualitatively assessed by subtracting the minimum absorbance value from the maximum value for each well, using either the SoftMax Pro plate reader software or a spreadsheet program such as Excel. Using GraphPad Prism 8.0, the data was normalized, with 100% activity defined as the absorbance change in the 1% DMSO vehicle wells and 0% assigned to no change in absorbance over the course of the experiment. The normalized data were fit to a variable-slope four-parameter logistic model, constraining the bottom to be 0 or greater. Compounds of Table 1 to 3 were tested and results of the assay appear in Table 4 herein. A=IC50 is less than or equal to 10 μM; B=IC50 is greater than 10 μM and less than 100 μM; C=IC50 is greater than 100 μM.
In turn, “6-(5-(3-chlorophenyl)-1,2,4- thiadiazol-3-yl)-2-((3-methyl- isoxazol-5-yl)methyl)pyridazin- 3(2H)-one [Compound 27]” showed a half-inhibitory concentration (IC50) of at most 10 µM.

The compound “6-(5-(5-chloropyridin-3-yl)- 1,2,4-thiadiazol-3-yl)-2-((3- methylisoxazol-5-yl)methyl)- pyridazin-3(2H)-one [Compound 28]” displayed an IC50 of at least 100 µM.

Consider “N-ethyl-2-(6-oxo-3-(5-(5- (trifluoromethyl)pyridin-3-yl)- 1,2,4-thiadiazol-3-yl)pyridazin- 1(6H)-yl)acetamide [Compound 19]”, for which the 50% inhibitory concentration (IC50) is at least 100 µM.

“6-(3-(3-chlorophenyl)-1,2,4- thiadiazol-5-yl)-2-((3-(pyridin- 3-yl)-1,2,4-oxadiazol-5-yl)- methyl)pyridazin-3(2H)-one [Compound 22]” registered an IC50 of at least 100 µM.

The compound “N-ethyl-2-(5-(5-morpholino- 1,2,4-thiadiazol-3-yl)-2-oxo- pyridin-1(2H)-yl)acetamide [Compound 11]” came in with an IC50 of 10 to 100 µM.

As to “2-(5-(5-(4-chloropyridin-2-yl)- 1,2,4-oxadiazol-3-yl)-2-oxopyri- din-1(2H)-yl)-N-ethylacetamide [Compound 51]”, the 50% inhibitory concentration (IC50) was 10 to 100 µM.

A further experiment concerns embryos from zebrafish model of DMD.
Assay: not given
To be noted: cited from earlier work.
As to `Cc1ccc(S(=O)(=O)NCc2ccccc2)cc1` [N-benzyl-p-tolyl-sulfonamide (BTS), N-benzyl-p-tolyl-sulfonamide], the “protection of muscles from pathological muscle derangement” value is reported as “protect muscles from pathological muscle derangement”.

Source of the values: patent US20240336609A1, “PYRIDAZINONE COMPOUNDS AND USES THEREOF” (Edgewise Therapeutics, Inc., priority 2021, published 2024).
